Experiment [1] concerns the target T1, N-arachidonyl glycine receptor (Homo sapiens) (UniProt Q14330).
T1 sequence (whole entry): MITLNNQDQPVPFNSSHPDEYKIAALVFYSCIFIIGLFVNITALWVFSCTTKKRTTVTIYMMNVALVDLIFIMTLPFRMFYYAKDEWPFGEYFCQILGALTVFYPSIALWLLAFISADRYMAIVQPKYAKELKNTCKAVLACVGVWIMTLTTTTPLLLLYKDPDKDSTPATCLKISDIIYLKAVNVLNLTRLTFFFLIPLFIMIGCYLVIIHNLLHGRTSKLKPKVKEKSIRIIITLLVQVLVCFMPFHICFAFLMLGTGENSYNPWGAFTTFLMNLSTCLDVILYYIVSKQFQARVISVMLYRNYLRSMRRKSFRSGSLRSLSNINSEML
The experiment in a line: Agonist activity at human GPR18 expressed in CHO cells assessed as induction of beta-arrestin recruitment by beta-galactosidase enzyme fragment complementation method relative to delta9-THC. The format is cell-based. More on the design: concentration or dose not given beside the values. (Arrestin recruitment assays detect the binding of arrestin to an activated receptor.)

In experiment [2] the target is T2, N-arachidonyl glycine receptor (Homo sapiens, UniProt Q14330).
T2 sequence (Q14330 whole entry): T1 sequence (whole entry)
Briefly: Antagonist activity against human GPR18 expressed in CHO cells assessed as reduction in delta9-THC-induced beta-arrestin recruitment by beta-galactosidase enzyme fragment complementation method. The format is cell-based.

Experiment [3] concerns the target T3, G-protein coupled receptor 55 (Homo sapiens, UniProt Q9Y2T6). Briefly: Antagonist activity against human GPR55 expressed in CHO cells assessed as reduction in LPI-induced beta-arrestin recruitment by beta-galactosidase enzyme fragment complementation method. The format is cell-based.
For experiment [4], the target named is Cannabinoid receptor 1 (Rattus norvegicus) (UniProt P20272). Briefly: Displacement of [3H]CP55,940 from CB1 receptor in rat brain cortical membranes at 10 uM. The class given is cell membranes. On the technique in general: In a radioligand displacement assay an active substance lowers the binding of a labelled ligand.
In experiment [5] the target is T4, Cannabinoid receptor 1 (Homo sapiens, UniProt P21554). The experiment in a line: Displacement of [3H]CP55,940 from human recombinant CB1 receptor expressed in CHO-K1 cells. The class given is cell-based.
Experiment [6] concerns the target Cannabinoid receptor 1 (Rattus norvegicus, UniProt P20272). Briefly: Displacement of [3H]CP55,940 from CB1 receptor in rat brain cortical membranes. The format is cell membranes.
In experiment [7] the target is T4, Cannabinoid receptor 1. Briefly: Displacement of [3H]CP55,940 from human recombinant CB1 receptor expressed in CHO-K1 cells at 10 uM. The class given is cell-based.
Experiment [8] addresses T3, G-protein coupled receptor 55. Briefly: Agonist activity at human GPR55 expressed in CHO cells assessed as induction of LPI-induced beta-arrestin recruitment by beta-galactosidase enzyme fragment complementation method relative to LPI. The class given is cell-based. Details: concentration or dose not given beside the values.
For experiment [9], the target named is T5, Cannabinoid receptor 2 (Homo sapiens, UniProt P34972). The experiment in a line: Displacement of [3H]CP55,940 from human recombinant CB2 receptor expressed in HEK293 cells. The format is cell-based.
In experiment [10] the target is T3, G-protein coupled receptor 55. Briefly: Antagonist activity against human GPR55 expressed in CHO cells assessed as reduction in LPI-induced beta-arrestin recruitment at 10 uM by beta-galactosidase enzyme fragment complementation method. The class given is cell-based.
Experiment [11] addresses T5, Cannabinoid receptor 2. Briefly: Displacement of [3H]CP55,940 from human recombinant CB2 receptor expressed in HEK293 cells at 10 uM. The format is cell-based.
Experiment [12] addresses T1, N-arachidonyl glycine receptor (Homo sapiens). Briefly: Antagonist activity against human GPR18 expressed in CHO cells assessed as reduction in delta9-THC-induced beta-arrestin recruitment at 10 uM by beta-galactosidase enzyme fragment complementation method. The class given is cell-based.

Each structure is given as a SMILES string.

T5 sequence (P34972 whole entry, the tested form may be a part): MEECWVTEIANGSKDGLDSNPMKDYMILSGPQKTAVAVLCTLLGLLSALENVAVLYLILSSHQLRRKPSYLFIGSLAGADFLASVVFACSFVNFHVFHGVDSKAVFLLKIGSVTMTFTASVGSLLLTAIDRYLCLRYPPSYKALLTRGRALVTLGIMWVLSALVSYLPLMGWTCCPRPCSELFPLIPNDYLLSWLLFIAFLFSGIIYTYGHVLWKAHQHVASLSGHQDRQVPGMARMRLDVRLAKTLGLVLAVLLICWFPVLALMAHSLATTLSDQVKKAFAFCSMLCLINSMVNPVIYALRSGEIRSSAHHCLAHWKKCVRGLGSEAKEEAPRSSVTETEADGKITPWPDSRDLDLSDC
Sequence of Cannabinoid receptor 1 (Rattus norvegicus) (P20272 whole entry): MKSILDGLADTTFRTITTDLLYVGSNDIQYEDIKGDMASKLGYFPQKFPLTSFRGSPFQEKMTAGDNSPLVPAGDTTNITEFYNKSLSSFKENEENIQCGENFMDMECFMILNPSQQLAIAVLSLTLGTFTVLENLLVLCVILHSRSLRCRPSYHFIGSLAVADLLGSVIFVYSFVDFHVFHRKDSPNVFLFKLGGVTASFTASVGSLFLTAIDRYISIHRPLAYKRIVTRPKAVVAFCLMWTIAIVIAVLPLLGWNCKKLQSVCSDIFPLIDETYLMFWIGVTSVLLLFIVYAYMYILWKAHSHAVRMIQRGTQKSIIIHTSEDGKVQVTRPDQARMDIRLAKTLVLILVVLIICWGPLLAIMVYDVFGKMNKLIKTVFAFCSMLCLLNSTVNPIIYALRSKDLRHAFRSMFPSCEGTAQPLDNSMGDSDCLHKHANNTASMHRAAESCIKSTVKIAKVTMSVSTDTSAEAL
Sequence of Cannabinoid receptor 1 (Rattus norvegicus, UniProt P20272) (P20272 whole entry): as above
T3 sequence (Q9Y2T6 whole entry, the tested form may be a part): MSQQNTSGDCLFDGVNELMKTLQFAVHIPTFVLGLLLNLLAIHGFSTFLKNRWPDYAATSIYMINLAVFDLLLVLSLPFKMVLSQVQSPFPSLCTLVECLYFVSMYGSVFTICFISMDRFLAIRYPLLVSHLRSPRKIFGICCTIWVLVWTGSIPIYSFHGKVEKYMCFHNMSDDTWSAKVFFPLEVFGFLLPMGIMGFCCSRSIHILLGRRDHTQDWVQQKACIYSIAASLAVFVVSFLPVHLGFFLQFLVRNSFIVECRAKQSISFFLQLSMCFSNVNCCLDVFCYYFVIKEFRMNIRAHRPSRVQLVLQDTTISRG
T4 sequence (P21554 whole entry): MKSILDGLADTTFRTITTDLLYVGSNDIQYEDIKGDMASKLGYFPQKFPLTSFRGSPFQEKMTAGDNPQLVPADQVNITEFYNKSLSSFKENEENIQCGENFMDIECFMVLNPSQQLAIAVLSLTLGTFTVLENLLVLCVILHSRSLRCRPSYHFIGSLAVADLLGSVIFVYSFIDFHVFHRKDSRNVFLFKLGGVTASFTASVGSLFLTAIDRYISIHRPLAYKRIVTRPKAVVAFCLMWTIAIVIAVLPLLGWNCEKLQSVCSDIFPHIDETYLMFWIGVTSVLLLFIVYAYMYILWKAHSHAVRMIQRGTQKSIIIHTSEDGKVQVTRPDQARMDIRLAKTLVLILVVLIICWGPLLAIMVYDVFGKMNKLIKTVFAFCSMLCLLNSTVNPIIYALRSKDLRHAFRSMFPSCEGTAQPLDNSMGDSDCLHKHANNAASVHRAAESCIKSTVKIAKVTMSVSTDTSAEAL

Usually IC50 stands for the concentration that gives 50% inhibition. The inhibition is the change of the read-out against control, counted positive when it falls. The term Ki denotes a measure of affinity in units of concentration, obtained from inhibition or displacement. Consider `Cc1ccc(C(=O)Oc2cccc(/C=C3\N=C4SCCCCN4C3=O)c2)cc1`, for which the figures for the Activity in experiment [1] and in experiment [8] were 0% and 25%, respectively. The figures for the IC50 in experiment [2] and in [3] were 6.45 µM and over 10 µM, respectively. Further, the inhibition is 4% in experiment [4], 35% on Cannabinoid receptor 1 [7] and 32% in [10]. Also, the results for the Ki on Cannabinoid receptor 1 [5], at Cannabinoid receptor 1 [6] and at Cannabinoid receptor 2 [9] were over 10 µM, over 10 µM and 2.58 µM, respectively.
In the case of `O=C1/C(=C/c2cccc([N+](=O)[O-])c2)N=C2SCCCN12`, the figures for the Activity in [1] and in [8] were 2% and 21%, respectively. Further, the IC50 in [2] and in experiment [3] was over 10 µM throughout. In addition, the inhibition in experiment [4] amounted to 8%; at Cannabinoid receptor 2 [11] it was 10%; in experiment [12], 6%; on Cannabinoid receptor 1 [7], 19%; in experiment [10] it was 20%. The Ki on Cannabinoid receptor 1 [5], at Cannabinoid receptor 1 [6] and on Cannabinoid receptor 2 [9] was over 10 µM each time.
On to `COc1ccc(/C=C2\N=C3SCCCN3C2=O)cc1`, for which the Activity in [1] is 0%; in experiment [8], 37%. Moreover, the IC50 in experiment [2] and in [3] was over 10 µM throughout. Moreover, the inhibition turned out to be 5% in experiment [4]; 6% at Cannabinoid receptor 2 [11]; 10% in experiment [12]; 39% on Cannabinoid receptor 1 [7]; 16% in [10]. Further, the Ki on Cannabinoid receptor 1 [5], at Cannabinoid receptor 1 [6] and on Cannabinoid receptor 2 [9] was over 10 µM in each case.
Take `O=C1/C(=C/c2c(Cl)cccc2Cl)N=C2SCCCN12`: the results for the Activity in experiment [1] and in experiment [8] were 12% and 15%, respectively. Further, the concentration for half-maximal inhibition (IC50) in [2] and in experiment [3] was over 10 µM each time. In addition, the Ki at Cannabinoid receptor 1 [5] and at Cannabinoid receptor 2 [9] was over 10 µM in each case. The inhibition at Cannabinoid receptor 2 [11] came to 4%; in experiment [12] it was 0%; at Cannabinoid receptor 1 [7], 14%; in experiment [10], 0%.
Take `O=C1/C(=C/c2cccc(OCc3ccc(Cl)c(Cl)c3)c2)N=C2SCCCN12`: the Activity in experiment [1] worked out at 0%; in experiment [8], 4%. Also, the results for the IC50 in experiment [2] and in experiment [3] were 6.16 µM and 11.8 µM, respectively. Besides, the Ki at Cannabinoid receptor 1 [5], at Cannabinoid receptor 1 [6] and at Cannabinoid receptor 2 [9] was over 10 µM throughout. Also, the inhibition at Cannabinoid receptor 2 [11] turned out to be 0%; on Cannabinoid receptor 1 [7] it was 15%.
On to `O=C1N=C2SCCCN2/C1=C\C=C\c1ccccc1`, for which the Activity in [1] came out at 9%; in experiment [8] it was 59%. The IC50 in experiment [2] and in experiment [3] was over 10 µM in each case. For the same compound, the inhibitory constant (Ki) at Cannabinoid receptor 1 [5], on Cannabinoid receptor 1 [6] and at Cannabinoid receptor 2 [9] was over 10 µM each time. The inhibition was determined as 19% on Cannabinoid receptor 2 [11], 2% in experiment [12], 26% on Cannabinoid receptor 1 [7] and 0% in experiment [10].
As to `O=C1/C(=C/c2ccc(Cl)cc2Cl)N=C2SCCCN12`, the Activity in experiment [1] and in [8] was 0% in each case. Also, the results for the IC50 in experiment [2] and in experiment [3] were over 10 µM and 6.76 µM, respectively. Also, the Ki at Cannabinoid receptor 1 [5] and at Cannabinoid receptor 2 [9] was over 10 µM throughout. The inhibition was 24% on Cannabinoid receptor 2 [11], 14% in experiment [12] and 8% on Cannabinoid receptor 1 [7].
With `COc1cccc(/C=C2\N=C3SCCCN3C2=O)c1OC`, the values for the Activity in [1] and in [8] were 10% and 0%, respectively. The figures for the IC50 in experiment [2] and in experiment [3] were over 10 µM and 16.4 µM, respectively. Besides, the Ki on Cannabinoid receptor 1 [5] and at Cannabinoid receptor 2 [9] was over 10 µM in each case. Besides, the inhibition at Cannabinoid receptor 2 [11] turned out to be 15%; in experiment [12], 10%; on Cannabinoid receptor 1 [7], 18%.
Consider `O=C1/C(=C/c2ccccc2F)N=C2SCCCN12`, for which the Activity in experiment [1] stood at 6%; in experiment [8], 0%. Also, the IC50 in experiment [2] is over 10 µM; in experiment [3], 5.56 µM. Besides, the Ki on Cannabinoid receptor 1 [5] and on Cannabinoid receptor 2 [9] was over 10 µM throughout. Also, the inhibition turned out to be 0% on Cannabinoid receptor 2 [11], 17% in [12] and 13% on Cannabinoid receptor 1 [7].
With `O=C(Oc1cccc(/C=C2\N=C3SCCCN3C2=O)c1)c1ccc(Cl)cc1`, the figures for the Activity in experiment [1] and in experiment [8] were 0% and 31%, respectively. Also, the IC50 is 14.3 µM in [2] and over 10 µM in [3]. Besides, the inhibition turned out to be 24% in [4], 0% on Cannabinoid receptor 2 [11], 12% on Cannabinoid receptor 1 [7] and 16% in experiment [10]. The Ki at Cannabinoid receptor 1 [5], on Cannabinoid receptor 1 [6] and on Cannabinoid receptor 2 [9] was over 10 µM throughout.
Turning to `O=C1N2CCSC2=NC1(c1ccccc1)c1ccccc1`, the Activity came to 12% in experiment [1] and 50% in experiment [8]. Moreover, the IC50 in experiment [2] and in experiment [3] was over 10 µM throughout. In addition, the inhibition in experiment [4] was 15%; on Cannabinoid receptor 2 [11], 3%; in [12], 12%; in experiment [10], 39%. Moreover, the Ki at Cannabinoid receptor 1 [5] is 21.1 µM; on Cannabinoid receptor 1 [6], over 10 µM; on Cannabinoid receptor 2 [9], over 10 µM.
For the compound `CCOC(=O)COc1cccc(/C=C2\N=C3SCCCCN3C2=O)c1`, the Activity in [1] is 19%; in [8] it was 0%. Moreover, the IC50 in experiment [2] and in [3] was over 10 µM each time. The inhibition worked out at 27% in experiment [4], 39% at Cannabinoid receptor 2 [11], 22% in experiment [12] and 4% in [10]. The results for the Ki on Cannabinoid receptor 1 [5], at Cannabinoid receptor 1 [6] and at Cannabinoid receptor 2 [9] were 4.78 µM, over 10 µM and over 10 µM, respectively.
Consider `O=C1/C(=C/c2ccc(-c3ccccc3)cc2)N=C2SCCCCN12`, for which the values for the Activity in experiment [1] and in experiment [8] were 6% and 30%, respectively. Also, the IC50 in experiment [2] and in experiment [3] was over 10 µM in each case. Besides, the inhibition is 0% in experiment [4], 37% in experiment [12], -5% on Cannabinoid receptor 1 [7] and 0% in experiment [10]. The Ki at Cannabinoid receptor 1 [5] is over 10 µM; on Cannabinoid receptor 1 [6] it was over 10 µM; at Cannabinoid receptor 2 [9] it was 5.43 µM.
For `CN(C)c1ccc(/C=C2\N=C3SCCCN3C2=O)cc1`, the Activity in [1] was determined as 17%; in [8] it was 20%. Also, the IC50 in experiment [2] and in experiment [3] was over 10 µM each time. For the same compound, the inhibition in experiment [4] amounted to 6%; in experiment [12], 13%; at Cannabinoid receptor 1 [7], 29%; in [10], 13%. The Ki at Cannabinoid receptor 1 [5] was over 10 µM; on Cannabinoid receptor 1 [6] it was over 10 µM; at Cannabinoid receptor 2 [9] it was 16.6 µM.
As for `CCCCC/C=C\C/C=C\C/C=C\C/C=C\CCCC(=O)NCC(=O)O` [ARACHIDONOYL GLYCINE], the IC50 in [2] and in experiment [3] was over 10 µM in each case. For the same compound, the Ki at Cannabinoid receptor 1 [5] and at Cannabinoid receptor 2 [9] was over 10 µM in each case. Moreover, the inhibition on Cannabinoid receptor 2 [11] turned out to be 36%; in experiment [12], 0%; at Cannabinoid receptor 1 [7], 43%; in experiment [10], 6%.
For `O=C1/C(=C/c2cccc(OCc3ccccc3Cl)c2)N=C2SCCCN12`, the Activity worked out at 8% in experiment [1] and 10% in experiment [8]. Also, the values for the IC50 in [2] and in experiment [3] were 1.65 µM and at least 10 µM, respectively. Besides, the Ki on Cannabinoid receptor 1 [5] and on Cannabinoid receptor 2 [9] was over 10 µM in each case. Also, the inhibition at Cannabinoid receptor 2 [11] stood at 9%; at Cannabinoid receptor 1 [7], 0%; in experiment [10], 45%.
